Source: patent publication US11629171B2, “Beta-hairpin peptidomimetics” (POLYPHOR AG, priority 2017, dated 2023)
Converted amounts (≈) assume the structure as drawn. Where a SMILES comes first, the peptide text is derived from it. Bridges are numbered along the chain shown (N, C = ends). Roman numbers before positions name the chains, in order. [ ]: non-standard residue; d: D form. Thr(ol) = C[C@@H](O)[C@H](N)CO; Pen = CC(C)(S)[C@H](N)C(=O)O; Tle = CC(C)(C)[C@H](N)C(=O)O; Hiv = CC(C)[C@H](O)C(=O)O; dDab = NCC[C@@H](N)C(=O)O; hSer = N[C@@H](CCO)C(=O)O; Nle = CCCC[C@H](N)C(=O)O; Orn = NCCC[C@H](N)C(=O)O; Dab = NCC[C@H](N)C(=O)O; Dap = NC[C@H](N)C(=O)O

Assays:
Type in all cases: cell-based
[1] = system: Acinetobacter baumannii 872842; conditions: 872842
Procedure, shortened: (§1)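 Visible-growth endpoint after 18-20 h at 35° C defines the MIC (μg/mL). Setup: CLSI broth microdilution, MH-II cation-adjusted broth with P-80 at 0.002% final, inoculum of approximately 10^6 CFU/mL, two-fold serial peptide dilutions.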

[2] = system: Acinetobacter baumannii DSM 30008; conditions: DSM 30008
Procedure, shortened: as §1

[3] = system: Enterobacter cloacae 848840; conditions: 848840
Procedure, shortened: as §1

[4] = system: Escherichia coli 926415; conditions: 926415
Procedure, shortened: as §1

[5] = system: Escherichia coli ATCC 25922; conditions: ATCC 25922
Procedure, shortened: as §1

[6] = system: Klebsiella pneumoniae 968733; conditions: 968733
Procedure, shortened: as §1

[7] = system: Klebsiella pneumoniae SSI #3010; conditions: SSI #3010
Procedure, shortened: as §1

[8] = system: Pseudomonas aeruginosa ATCC 27853; conditions: ATCC 27853
Procedure, shortened: as §1

[9] = system: human red blood cells (hRBC); assay: Hemolysis; conditions: red cells of human, 1 h, 200
Procedure, shortened: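 Hemoglobin release from PBS-washed hRBC at 20% (v/v), incubated 1 h at 37° C with peptides at 200 μg/mL, is measured at 540 nm. Values are blank corrected and given as a fraction of Triton X-100 lysis × 100%.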

SMILES	MIC [1] [µg/mL]	MIC [2] [µg/mL]	MIC [3] [µg/mL]	MIC [4] [µg/mL]	MIC [5] [µg/mL]	MIC [6] [µg/mL]	MIC [7] [µg/mL]	MIC [8] [µg/mL]	Hemolysis at 200 μg/mL [9] [%]	Acinetobacter baumannii DSM 30008 MIC [2] [µg/mL]	Escherichia coli ATCC 25922 MIC [5] [µg/mL]	Klebsiella pneumoniae SSI #3010 MIC [7] [µg/mL]	Pseudomonas aeruginosa ATCC 27853 MIC [8] [µg/mL]
CC(=O)N[C@H](C(=O)N[C@H](C(=O)N[C@@H](Cc1ccc(O)cc1)C(=O)N[C@H]1CSSC(C)(C)[C@@H](C(=O)N[C@H](C(=O)N[C@H](C(=O)N[C@H](C(N)=O)[C@@H](C)O)[C@@H](C)O)C(C)C)NC(=O)[C@H](Cc2c[nH]c3ccccc23)NC(=O)[C@H](CO)NC(=O)[C@@H](CCN)NC(=O)[C@H](CCC(=O)N[C@@H](CCN)C(=O)N[C@H](C(=O)N[C@@H](CN)C(=O)N[C@H]2CCNC(=O)[C@H]([C@@H](C)O)NC(=O)[C@H](CCN)NC(=O)[C@H](CCN)NC(=O)[C@H](CC(C)C)NC(=O)[C@@H](CC(C)C)NC(=O)[C@H](CCN)NC2=O)[C@@H](C)O)NC1=O)[C@@H](C)O)C(C)C [Ex. 222] (I: Ac-VTYCE[dDab]SW[Pen]VTT-NH2 / II: [Dab]T[Dap][Dab][Dab][dL]L[Dab][Dab]T; disulfide I:4-I:9; amide I:5-II:N; lactam II:4-II:C)	0.0625 (≈ 0.0254 µM)	0.0625 (≈ 0.0254 µM)	0.125 (≈ 0.0509 µM)	0.25 (≈ 0.102 µM)	0.03125 (≈ 0.0127 µM)	0.25 (≈ 0.102 µM)	0.0625 (≈ 0.0254 µM)	0.125 (≈ 0.0509 µM)	1				
CC(C)C[C@@H]1NC(=O)[C@@H](CC(C)C)NC(=O)[C@H](CCN)NC(=O)[C@@H](NC(=O)[C@H](CN)NC(=O)[C@@H](NC(=O)[C@H](CCN)NC(=O)CC[C@H]2NC(=O)[C@@H](CCN)NC(=O)CNC(=O)[C@@H](NC(=O)[C@H](Cc3ccc(O)cc3)NC(=O)[C@@H](NC(=O)[C@@H](O)C(C)C)[C@@H](C)O)CSSC[C@@H](C(=O)N[C@H](C(=O)N[C@@H](C)C(=O)N[C@H](CO)[C@@H](C)O)C(C)(C)C)NC(=O)[C@H](Cc3c[nH]c4ccccc34)NC2=O)[C@@H](C)O)CCNC(=O)[C@H]([C@@H](C)O)NC(=O)[C@H](CCN)NC(=O)[C@H](CCN)NC1=O [Ex. 214] (I: H-[Hiv]TYCG[dDab][dE]WC[Tle]A[Thr(ol)] / II: [Dab]T[Dap][Dab][Dab][dL]L[Dab][Dab]T; disulfide I:4-I:9; amide I:7-II:N; lactam II:4-II:C)	0.5 (≈ 0.215 µM)	0.125 (≈ 0.0537 µM)	8 (≈ 3.44 µM)	0.5 (≈ 0.215 µM)	0.0625 (≈ 0.0268 µM)	0.5 (≈ 0.215 µM)	0.25 (≈ 0.107 µM)	0.5 (≈ 0.215 µM)	<1				
CCCC[C@H](NC(C)=O)C(=O)N[C@H]1CCCNC(=O)[C@@H]([C@H](C)O)NC(=O)[C@H](C(C)(C)C)NC(=O)[C@H](CO)NC(=O)[C@H](Cc2c[nH]c3ccccc23)NC(=O)[C@H](CCO)NC(=O)[C@@H](CCN)NC(=O)[C@H](CCC(=O)N[C@@H](CCN)C(=O)N[C@H](C(=O)N[C@@H](CN)C(=O)N[C@H]2CCNC(=O)[C@H]([C@@H](C)O)NC(=O)[C@H](CCN)NC(=O)[C@H](CCN)NC(=O)[C@H](CC(C)C)NC(=O)[C@@H](CC(C)C)NC(=O)[C@H](CCN)NC2=O)[C@@H](C)O)NC(=O)[C@H](CN)NC(=O)[C@H](Cc2ccc(O)cc2)NC1=O [Ex. 34] (I: Ac-[Nle][Orn]Y[Dap]E[dDab][hSer]WS[Tle][dT] / II: [Dab]T[Dap][Dab][Dab][dL]L[Dab][Dab]T; lactam I:2-I:C, II:4-II:C; amide I:5-II:N)	0.0625 (≈ 0.0268 µM)	0.03125 (≈ 0.0134 µM)	0.125 (≈ 0.0536 µM)	0.0625 (≈ 0.0268 µM)	0.0625 (≈ 0.0268 µM)	0.125 (≈ 0.0536 µM)	0.125 (≈ 0.0536 µM)	0.25 (≈ 0.107 µM)	<1				
CC(C)C[C@@H]1NC(=O)[C@@H](CC(C)C)NC(=O)[C@H](CCN)NC(=O)[C@@H](NC(=O)[C@H](CN)NC(=O)[C@@H](NC(=O)[C@H](CCN)NC(=O)CC[C@@H]2NC(=O)[C@H](CN)NC(=O)[C@H](Cc3ccc(O)cc3)NC(=O)[C@@H](NC(=O)[C@@H](O)C(C)C)CSSC[C@@H](C(=O)N[C@H](CO)[C@@H](C)O)NC(=O)[C@H](C(C)(C)C)NC(=O)[C@H](CO)NC(=O)[C@H](Cc3c[nH]c4ccccc34)NC(=O)[C@H](CCO)NC(=O)[C@@H](CCN)NC2=O)[C@@H](C)O)CCNC(=O)[C@H]([C@@H](C)O)NC(=O)[C@H](CCN)NC(=O)[C@H](CCN)NC1=O [Ex. 112] (I: H-[Hiv]CY[Dap]E[dDab][hSer]WS[Tle]C[Thr(ol)] / II: [Dab]T[Dap][Dab][Dab][dL]L[Dab][Dab]T; disulfide I:2-I:11; amide I:5-II:N; lactam II:4-II:C)	0.0625 (≈ 0.0263 µM)	0.0625 (≈ 0.0263 µM)	0.125 (≈ 0.0527 µM)	0.0625 (≈ 0.0263 µM)	0.0625 (≈ 0.0263 µM)	0.125 (≈ 0.0527 µM)	0.0625 (≈ 0.0263 µM)	0.125 (≈ 0.0527 µM)	<1				
CC(=O)N[C@H](C(=O)N[C@H]1CCNC(=O)CC[C@@H](C(=O)N[C@@H](CO)C(N)=O)NC(=O)[C@H](C(C)C)NC(=O)[C@H](CO)NC(=O)[C@H](Cc2c[nH]c3ccccc23)NC(=O)CNC(=O)[C@@H](CCN)NC(=O)[C@H](CCC(=O)N[C@@H](CCN)C(=O)N[C@H](C(=O)N[C@@H](CN)C(=O)N[C@H]2CCNC(=O)[C@H]([C@@H](C)O)NC(=O)[C@H](CCN)NC(=O)[C@H](CCN)NC(=O)[C@H](CC(C)C)NC(=O)[C@@H](CC(C)C)NC(=O)[C@H](CCN)NC2=O)[C@@H](C)O)NC(=O)[C@H](CCN)NC(=O)[C@H](Cc2ccc(O)cc2)NC1=O)C(C)C [Ex. 349] (I: Ac-V[Dab]Y[Dab]E[dDab]GWSVES-NH2 / II: [Dab]T[Dap][Dab][Dab][dL]L[Dab][Dab]T; lactam I:2-I:11, II:4-II:C; amide I:5-II:N)	0.25 (≈ 0.105 µM)		0.25 (≈ 0.105 µM)	0.25 (≈ 0.105 µM)		0.25 (≈ 0.105 µM)			<1	0.0625	0.0625	0.125	0.125
CC(=O)N[C@H](C(=O)N[C@H]1CSSC[C@@H](C(=O)N[C@@H](CO)C(N)=O)NC(=O)[C@H](C(C)(C)C)NC(=O)[C@H](CO)NC(=O)[C@H](Cc2c[nH]c3ccccc23)NC(=O)[C@H](CCN)NC(=O)[C@@H](CCN)NC(=O)[C@H](CCC(=O)N[C@@H](CCN)C(=O)N[C@H](C(=O)N[C@@H](CN)C(=O)N[C@H]2CCNC(=O)[C@H]([C@@H](C)O)NC(=O)[C@H](CCN)NC(=O)[C@H](CCN)NC(=O)[C@H]([C@@H](C)O)NC(=O)[C@@H](CC(C)C)NC(=O)[C@H](CCN)NC2=O)[C@@H](C)O)NC(=O)[C@H]([C@@H](C)O)NC(=O)[C@H](Cc2ccc(O)cc2)NC1=O)C(C)C [Ex. 262] (I: Ac-VCYTE[dDab][Dab]WS[Tle]CS-NH2 / II: [Dab]T[Dap][Dab][Dab][dL]T[Dab][Dab]T; disulfide I:2-I:11; amide I:5-II:N; lactam II:4-II:C)	0.0625 (≈ 0.0259 µM)	0.0625 (≈ 0.0259 µM)	0.0625 (≈ 0.0259 µM)	0.25 (≈ 0.104 µM)	0.03125 (≈ 0.0129 µM)	0.25 (≈ 0.104 µM)	0.03125 (≈ 0.0129 µM)	0.125 (≈ 0.0518 µM)	1				
CC(=O)N[C@H](C(=O)N[C@H]1CSSC[C@@H](C(=O)N[C@@H](CO)C(N)=O)NC(=O)[C@H](C(C)C)NC(=O)[C@H](CO)NC(=O)[C@H](Cc2c[nH]c3ccccc23)NC(=O)[C@@H](CO)NC(=O)[C@@H](CCN)NC(=O)[C@H](CCC(=O)N[C@@H](CCN)C(=O)N[C@H](C(=O)N[C@@H](CN)C(=O)N[C@H]2CCNC(=O)[C@H]([C@@H](C)O)NC(=O)[C@H](CCN)NC(=O)[C@H](CCN)NC(=O)[C@H](CC(C)C)NC(=O)[C@@H](CC(C)C)NC(=O)[C@H](CCN)NC2=O)[C@@H](C)O)NC(=O)[C@H](CCN)NC(=O)[C@H](Cc2ccc(O)cc2)NC1=O)C(C)C [Ex. 305] (I: Ac-VCY[Dab]E[dDab][dS]WSVCS-NH2 / II: [Dab]T[Dap][Dab][Dab][dL]L[Dab][Dab]T; disulfide I:2-I:11; amide I:5-II:N; lactam II:4-II:C)	0.125 (≈ 0.0521 µM)		0.25 (≈ 0.104 µM)	0.25 (≈ 0.104 µM)		0.25 (≈ 0.104 µM)			3	0.0625	0.0625	0.0625	0.125
